Test results taken from patent US8952024B2, “Herbicidal pyrimidone derivatives” (E I du Pont de Nemours and Company, priority 2009, dated 2015).

What was measured:
Type in all cases: in vivo
[1] = test system: barnyardgrass (Echinochloa crus-galli); experiment: Test A pre-/postemergence plant response; settings: for Barnyardgrass plant response rating: visual injury, 0 to 100 scale (0 no effect, 100 complete control), approx. ten days
How it was run: (§1)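 Pre: directed soil spray on seeded loam/sand blend. Post: same formulation (non-phytotoxic solvent + surfactant) on 2–10 cm plants, 1–2 leaf stage. Greenhouse ~10 d; visual injury score 0–100 vs untreated.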

corn (Zea mays) = experiment: Test A pre-/postemergence plant response; settings: for Corn plant response rating: visual injury, 0 to 100 scale (0 no effect, 100 complete control), approx. ten days
How it was run: as §1

[2] = test system: giant foxtail (Setaria faberii); experiment: Test A pre-/postemergence plant response; settings: for Foxtail, Giant plant response rating: visual injury, 0 to 100 scale (0 no effect, 100 complete control), approx. ten days
How it was run: as §1

[3] = test system: large crabgrass (Digitaria sanguinalis); experiment: Test A pre-/postemergence plant response; settings: for Crabgrass, Large plant response rating: visual injury, 0 to 100 scale (0 no effect, 100 complete control), approx. ten days
How it was run: as §1

[4] = test system: morningglory (Ipomoea spp.); experiment: Test A pre-/postemergence plant response; settings: for Morningglory plant response rating: visual injury, 0 to 100 scale (0 no effect, 100 complete control), approx. ten days
How it was run: as §1

[5] = test system: pigweed (Amaranthus retroflexus); experiment: Test A pre-/postemergence plant response; settings: for Pigweed plant response rating: visual injury, 0 to 100 scale (0 no effect, 100 complete control), approx. ten days
How it was run: as §1

[6] = test system: velvetleaf (Abutilon theophrasti); experiment: Test A pre-/postemergence plant response; settings: for Velvetleaf plant response rating: visual injury, 0 to 100 scale (0 no effect, 100 complete control), approx. ten days
How it was run: as §1

[7] = test system: wheat (Triticum aestivum); experiment: Test A pre-/postemergence plant response; settings: for Wheat plant response rating: visual injury, 0 to 100 scale (0 no effect, 100 complete control), approx. ten days
How it was run: as §1

[8] = test system: barnyardgrass (Echinochloa crus-galli); experiment: Test B flooded paddy test; settings: for Plant response rating, Flood, Barnyardgrass: 250 g ai/ha, flooded paddy test, visual rating on 0 to 100 scale (0 no effect, 100 complete control) after 13 to 15 days; for Plant response rating, Barnyardgrass: Flood (flooded paddy test), 13 to 15 days; for Barnyardgrass plant response rating: Flood, 31 g ai/ha, scale 0 to 100 (0 no effect, 100 complete control)
How it was run: (§2)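 Seedlings reaching 2 leaves are flooded 3 cm deep; test material is delivered to that water, which stays at the same depth. Plants remain in a greenhouse 13–15 days and are then scored by eye versus controls from 0 to 100.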

[9] = test system: ducksalad (Heteranthera limosa); experiment: Test B flooded paddy test; settings: for Plant response rating, Flood, Ducksalad: 250 g ai/ha, flooded paddy test, visual rating on 0 to 100 scale (0 no effect, 100 complete control) after 13 to 15 days; for Plant response rating, Ducksalad: Flood (flooded paddy test), 13 to 15 days; for Ducksalad plant response rating: Flood, 31 g ai/ha, scale 0 to 100 (0 no effect, 100 complete control)
How it was run: as §2

rice (Oryza sativa) = experiment: Test B flooded paddy test; settings: for Plant response rating, Flood, Rice: 250 g ai/ha, flooded paddy test, visual rating on 0 to 100 scale (0 no effect, 100 complete control) after 13 to 15 days; for Plant response rating, Rice: Flood (flooded paddy test), 13 to 15 days; for Rice plant response rating: Flood, 31 g ai/ha, scale 0 to 100 (0 no effect, 100 complete control)
How it was run: as §2

[10] = test system: umbrella sedge (Cyperus difformis); experiment: Test B flooded paddy test; settings: for Plant response rating, Flood, Sedge, Umbrella: 250 g ai/ha, flooded paddy test, visual rating on 0 to 100 scale (0 no effect, 100 complete control) after 13 to 15 days; for Plant response rating, Sedge, Umbrella: Flood (flooded paddy test), 13 to 15 days; for Sedge, Umbrella plant response rating: Flood, 31 g ai/ha, scale 0 to 100 (0 no effect, 100 complete control)
How it was run: as §2

[11] = Postemergence, 125 g ai/ha, 0 to 100 scale where 0 is no effect and 100 is complete control
[12] = Preemergence, 125 g ai/ha, 0 to 100 scale, 0 = no effect, 100 = complete control
[13] = Preemergence, 500 g ai/ha, 0 to 100 scale, 0 = no effect, 100 = complete control
[14] = 62 g ai/ha, scale of 0 to 100 where 0 is no effect and 100 is complete control
[15] = 125 g ai/ha, scale 0 to 100, 0 is no effect, 100 is complete control

O=C1CCCC(O)=C1C(=O)c1cnc(-c2cc(F)cc(F)c2)n(-c2ccccc2)c1=O [Compound 161]
Plant response rating, Barnyardgrass [1, 11]: 30 | Barnyardgrass plant response rating ([1]; Postemergence, 500 g ai/ha): 90 | Plant response rating, Barnyardgrass [1, 12]: 10 | Plant response rating, Barnyardgrass [1, 13]: 90 | Plant response rating, Corn (corn (Zea mays); [11]): 0 | Corn plant response rating (corn (Zea mays); Postemergence, 500 g ai/ha): 10 | Plant response rating, Corn (corn (Zea mays); [12]): 0 | Plant response rating, Corn (corn (Zea mays); [13]): 0 | Plant response rating, Foxtail, Giant [2, 11]: 40 | Foxtail, Giant plant response rating ([2]; Postemergence, 500 g ai/ha): 90 | Plant response rating, Foxtail, Giant [2, 12]: 50 | Plant response rating, Foxtail, Giant [2, 13]: 80 | Plant response rating, Crabgrass, Large [3, 11]: 60 | Crabgrass, Large plant response rating ([3]; Postemergence, 500 g ai/ha): 90 | Plant response rating, Crabgrass, Large [3, 12]: 50 | Plant response rating, Crabgrass, Large [3, 13]: 90 | Plant response rating, Morningglory [4, 11]: 60 | Morningglory plant response rating ([4]; Postemergence, 500 g ai/ha): 100 | Plant response rating, Morningglory [4, 12]: 0 | Plant response rating, Morningglory [4, 13]: 40 | Plant response rating, Pigweed [5, 11]: 80 | Pigweed plant response rating ([5]; Postemergence, 500 g ai/ha): 100 | Plant response rating, Pigweed [5, 12]: 90 | Plant response rating, Pigweed [5, 13]: 100 | Plant response rating, Velvetleaf [6, 11]: 100 | Velvetleaf plant response rating ([6]; Postemergence, 500 g ai/ha): 100 | Plant response rating, Velvetleaf [6, 12]: 70 | Plant response rating, Velvetleaf [6, 13]: 90 | Plant response rating, Wheat [7, 11]: 0 | Wheat plant response rating ([7]; Postemergence, 500 g ai/ha): 0 | Plant response rating, Wheat [7, 12]: 0 | Plant response rating, Wheat [7, 13]: 0 | Plant response rating, Flood, Barnyardgrass [8]: 30 | Plant response rating, Barnyardgrass [8, 14]: 0 | Plant response rating, Barnyardgrass [8, 15]: 0 | Barnyardgrass plant response rating [8]: 0 | Plant response rating, Flood, Ducksalad [9]: 80 | Plant response rating, Ducksalad [9, 14]: 0 | Plant response rating, Ducksalad [9, 15]: 0 | Ducksalad plant response rating [9]: 0 | Plant response rating, Flood, Rice (rice (Oryza sativa)): 50 | Plant response rating, Rice (rice (Oryza sativa); [14]): 50 | Plant response rating, Rice (rice (Oryza sativa); [15]): 45 | Rice plant response rating (rice (Oryza sativa)): 25 | Plant response rating, Flood, Sedge, Umbrella [10]: 60 | Plant response rating, Sedge, Umbrella [10, 14]: 0 | Plant response rating, Sedge, Umbrella [10, 15]: 0 | Sedge, Umbrella plant response rating [10]: 0

C=CCCn1c(-c2ccccc2)ncc(C(=O)C2=C(O)CCCC2=O)c1=O [Compound 214]
Plant response rating, Barnyardgrass [1, 11]: 80 | Barnyardgrass plant response rating ([1]; Postemergence, 500 g ai/ha): 90 | Plant response rating, Barnyardgrass [1, 12]: 10 | Plant response rating, Barnyardgrass [1, 13]: 60 | Plant response rating, Corn (corn (Zea mays); [11]): 0 | Corn plant response rating (corn (Zea mays); Postemergence, 500 g ai/ha): 30 | Plant response rating, Corn (corn (Zea mays); [12]): 0 | Plant response rating, Corn (corn (Zea mays); [13]): 0 | Plant response rating, Foxtail, Giant [2, 11]: 50 | Foxtail, Giant plant response rating ([2]; Postemergence, 500 g ai/ha): 90 | Plant response rating, Foxtail, Giant [2, 12]: 30 | Plant response rating, Foxtail, Giant [2, 13]: 70 | Plant response rating, Crabgrass, Large [3, 11]: 80 | Crabgrass, Large plant response rating ([3]; Postemergence, 500 g ai/ha): 90 | Plant response rating, Crabgrass, Large [3, 12]: 30 | Plant response rating, Crabgrass, Large [3, 13]: 90 | Plant response rating, Morningglory [4, 11]: 80 | Morningglory plant response rating ([4]; Postemergence, 500 g ai/ha): 100 | Plant response rating, Morningglory [4, 12]: 0 | Plant response rating, Morningglory [4, 13]: 80 | Plant response rating, Pigweed [5, 11]: 90 | Pigweed plant response rating ([5]; Postemergence, 500 g ai/ha): 100 | Plant response rating, Pigweed [5, 12]: 70 | Plant response rating, Pigweed [5, 13]: 90 | Plant response rating, Velvetleaf [6, 11]: 100 | Velvetleaf plant response rating ([6]; Postemergence, 500 g ai/ha): 100 | Plant response rating, Velvetleaf [6, 12]: 90 | Plant response rating, Velvetleaf [6, 13]: 100 | Plant response rating, Wheat [7, 11]: 0 | Wheat plant response rating ([7]; Postemergence, 500 g ai/ha): 20 | Plant response rating, Wheat [7, 12]: 0 | Plant response rating, Wheat [7, 13]: 30 | Plant response rating, Flood, Barnyardgrass [8]: 20 | Plant response rating, Barnyardgrass [8, 14]: 0 | Plant response rating, Flood, Ducksalad [9]: 95 | Plant response rating, Ducksalad [9, 14]: 0 | Plant response rating, Flood, Rice (rice (Oryza sativa)): 15 | Plant response rating, Rice (rice (Oryza sativa); [14]): 0 | Plant response rating, Flood, Sedge, Umbrella [10]: 85 | Plant response rating, Sedge, Umbrella [10, 14]: 0

Cc1cccc(-c2ncc(C(=O)C3=C(O)CCCC3=O)c(=O)n2-c2ccccc2C)c1 [Compound 210]
Plant response rating, Barnyardgrass [1, 11]: 40 | Barnyardgrass plant response rating ([1]; Postemergence, 500 g ai/ha): 90 | Plant response rating, Barnyardgrass [1, 12]: 10 | Plant response rating, Barnyardgrass [1, 13]: 70 | Plant response rating, Corn (corn (Zea mays); [11]): 0 | Corn plant response rating (corn (Zea mays); Postemergence, 500 g ai/ha): 0 | Plant response rating, Corn (corn (Zea mays); [12]): 0 | Plant response rating, Corn (corn (Zea mays); [13]): 0 | Plant response rating, Foxtail, Giant [2, 11]: 10 | Foxtail, Giant plant response rating ([2]; Postemergence, 500 g ai/ha): 70 | Plant response rating, Foxtail, Giant [2, 12]: 20 | Plant response rating, Foxtail, Giant [2, 13]: 90 | Plant response rating, Crabgrass, Large [3, 11]: 10 | Crabgrass, Large plant response rating ([3]; Postemergence, 500 g ai/ha): 30 | Plant response rating, Crabgrass, Large [3, 12]: 10 | Plant response rating, Crabgrass, Large [3, 13]: 50 | Plant response rating, Morningglory [4, 11]: 50 | Morningglory plant response rating ([4]; Postemergence, 500 g ai/ha): 100 | Plant response rating, Morningglory [4, 12]: 0 | Plant response rating, Morningglory [4, 13]: 50 | Plant response rating, Pigweed [5, 11]: 90 | Pigweed plant response rating ([5]; Postemergence, 500 g ai/ha): 100 | Plant response rating, Pigweed [5, 12]: 60 | Plant response rating, Pigweed [5, 13]: 100 | Plant response rating, Velvetleaf [6, 11]: 70 | Velvetleaf plant response rating ([6]; Postemergence, 500 g ai/ha): 70 | Plant response rating, Velvetleaf [6, 12]: 40 | Plant response rating, Velvetleaf [6, 13]: 60 | Plant response rating, Wheat [7, 11]: 0 | Wheat plant response rating ([7]; Postemergence, 500 g ai/ha): 10 | Plant response rating, Wheat [7, 12]: 0 | Plant response rating, Wheat [7, 13]: 0 | Plant response rating, Flood, Barnyardgrass [8]: 40 | Plant response rating, Barnyardgrass [8, 14]: 0 | Plant response rating, Barnyardgrass [8, 15]: 20 | Barnyardgrass plant response rating [8]: 0 | Plant response rating, Flood, Ducksalad [9]: 90 | Plant response rating, Ducksalad [9, 14]: 85 | Plant response rating, Ducksalad [9, 15]: 90 | Ducksalad plant response rating [9]: 75 | Plant response rating, Flood, Rice (rice (Oryza sativa)): 25 | Plant response rating, Rice (rice (Oryza sativa); [14]): 0 | Plant response rating, Rice (rice (Oryza sativa); [15]): 20 | Rice plant response rating (rice (Oryza sativa)): 0 | Plant response rating, Flood, Sedge, Umbrella [10]: 80 | Plant response rating, Sedge, Umbrella [10, 14]: 75 | Plant response rating, Sedge, Umbrella [10, 15]: 75 | Sedge, Umbrella plant response rating [10]: 50
